One assay deals with T1, Aβ1-42 (Homo sapiens, UniProt P05067).
T1 construct: dissolving Aβ1-42 or Tau-RD3 (Tau repeat domain 3) monomer in DMSO
Kind of assay: Amyloid-beta (Aβ) disaggregation test by thioflavin-T assay. The format is biochemical. Conditions: 50 μM Aβ1-42 aggregated 24 hours, then compound 0-500 μM for 48 hours at 37° C. Here is the method: (§1) Each compound was dissolved in DMSO to a concentration of 10 mM. Subsequently, the compound was diluted with 6% DMSO (in DW) and used.
(§2) Specifically, amyloid-beta and tau solutions were prepared by dissolving Aβ1-42 or Tau-RD3 (Tau repeat domain 3) monomer in DMSO to a concentration of 10 mM. Thereafter, each solution was diluted with DW to a concentration of 100 μM and stored on ice. Meanwhile, thioflavin-T was dissolved in 50 mM glycine buffer (pH 8.5) to a concentration of 5 mM. Thereafter, the resulting solution was diluted with 50 mM glycine buffer (pH 8.5) to a concentration of 5 μM and stored in a dark room while light was blocked.
(§3) Each of the amyloid-beta and tau solutions prepared according to Experimental Example 1.1 was added to a 1.5 mL microcentrifuge tube to a concentration of 50 μM or 35 µM, and then a reaction was allowed to occur therebetween at 37° C. for 24 hours. Each of the 1.5 mL microcentrifuge tubes in which amyloid-beta aggregation and tau aggregation had been completed was treated with each compound at a concentrated of 500 μM to 0 μM through serial dilution, and then a further reaction was allowed to occur therebetween at 37° C. for 48 hours. 25 μL of the reaction solution in which the reaction had been completed was added to each well of a 96-well plate for fluorescence analysis, and 75 μL of the previously prepared thioflavin-T solution was added to each well. After a reaction was allowed to occur at room temperature in the dark for 5 minutes, fluorescence values were measured at excitation 450 nm and emission 485 nm by using a multi-mode microplate reader.
(§4) The fluorescence value of a group (control) treated with amyloid-beta or tau alone, followed by aggregation for 72 hours was converted into a percentage value and expressed as 100, and amyloid-beta and tau aggregates, in which aggregation had been completed upon reaction for 24 hours, were treated with each compound at each concentration and a further reaction was allowed to occur therebetween for 48 hours, and then fluorescence values thereof were measured and converted into relative values. The results thereof are illustrated in FIGS. 1 to 6 and 7 to 12. In addition, EC50 values of the compounds of the present disclosure for amyloid-beta and tau, respectively are summarized in Table 1.

Assay [1] deals with Tau-RD3 (Tau repeat domain 3) (Homo sapiens, UniProt P10636). Nature of the assay: Tau disaggregation test by thioflavin-T assay. Format: biochemical. Conditions: 35 μM Tau-RD3 aggregated 24 hours, then compound 0-500 μM for 48 hours at 37° C. Here is the method: as §1, §2, §3, §4

Where only a bound is given, the exact number is not on record here.

T1 sequence (P05067 672-713 limits assumed): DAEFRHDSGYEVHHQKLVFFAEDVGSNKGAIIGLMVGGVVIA
Sequence of Tau-RD3 (Tau repeat domain 3) (P10636 623-653 limits assumed): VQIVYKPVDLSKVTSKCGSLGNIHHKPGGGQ

The EC50 is the concentration at which the effect is half-maximal. Read a low EC50 as a more potent agent. In the case of `O=C1C(c2cccnc2)=C(c2ccoc2)c2ccc(OCCOc3ccc(Cl)c(Cl)c3)cc21` [Compound 46, 6-(2-(3,4-dichlorophenoxy)ethoxy)-3-(furan-3-yl)-2-(pyridin-3-yl)-1H-inden-1-one], the values for the EC50 (on Aβ1-42; in assay [1]) were 1.4 µM and 2.1 µM, respectively.

As for `COc1ccc(C2=C(c3ncsc3C)c3ccc(OCOCc4ccccc4)cc3C2=O)cc1` [Compound 20, 6-((benzyloxy)methoxy)-2-(4-methoxyphenyl)-3-(5-methylthiazol-4-yl)-1H-inden-1-one], the values for the EC50 (at Aβ1-42; in assay [1]) were 11.9 µM and 478 µM, respectively.

As for `COc1ccc(OCCOc2ccc3c(c2)C(=O)C(c2ccc(F)cc2)=C3c2ncsc2C)cc1OC` [Compound 23, 6-(2-(3,4-dimethoxyphenoxy)ethoxy)-2-(4-fluorophenyl)-3-(5-methylthiazol-4-yl)-1H-inden-1-one], the 50% effective concentration (EC50) at Aβ1-42 came to 4.1 µM; in assay [1], 5.2 µM.

As for `Cc1ncsc1C1=C(c2cccnc2)C(=O)c2cc(OCCCc3ccncc3)ccc21` [Compound 13, 3-(4-methylthiazol-5-yl)-2-(pyridin-3-yl)-6-(3-(pyridin-4-yl)propoxy)-1H-inden-1-one], the half-maximal effective concentration (EC50) at Aβ1-42 came to 110 µM; in assay [1], 1.5 µM.

Regarding `O=C1C(c2cccnc2)=C(c2ccoc2)c2ccc(OCCCc3ccccc3)cc21` [Compound 9, 3-(furan-3-yl)-6-(3-phenylpropoxy)-2-(pyridin-3-yl)-1H-inden-1-one], the 50% effective concentration (EC50) on Aβ1-42 is 19.1 µM; in assay [1] it was 53.6 µM.

In the case of `CN(C)c1ccc(OCCOc2ccc3c(c2)C(=O)C(c2cccnc2)=C3c2ccoc2)cc1` [Compound 48, 6-(2-(4-(dimethylamino)phenoxy)ethoxy)-3-(furan-3-yl)-2-(pyridin-3-yl)-1H-inden-1-one], the EC50 on Aβ1-42 is 2.3 µM; in assay [1], 4.1 µM.

For `Cc1ncsc1C1=C(c2ccccc2)C(=O)c2cc(OCCCc3ccccc3)ccc21` [Compound 10, 3-(4-methylthiazol-5-yl)-2-phenyl-6-(3-phenylpropoxy)-1H-inden-1-one], the EC50 on Aβ1-42 is 5.6 µM; in assay [1], 350 µM.

Take `Cc1scnc1C1=C(Br)C(=O)c2cc(OCCCN3CCOCC3)ccc21` [Compound 5, 2-bromo-3-(5-methylthiazol-4-yl)-6-(3-morpholinopropoxy)-1H-inden-1-one]: the EC50 at Aβ1-42 was determined as 65.6 µM; in assay [1], 344 µM.

For `Cc1scnc1C1=C(c2cccnc2)C(=O)c2cc(OCCCc3ccccc3)ccc21` [Compound 8, 3-(5-methylthiazol-4-yl)-6-(3-phenylpropoxy)-2-(pyridin-3-yl)-1H-inden-1-one], the concentration giving a half-maximal response (EC50) amounted to 1.9 µM on Aβ1-42 and 4.2 µM in assay [1].

For the molecule `CC(C)c1ccc(OCCOc2ccc3c(c2)C(=O)C(c2cccnc2)=C3c2ccoc2)cc1` [Compound 49, 3-(furan-3-yl)-6-(2-(4-isopropylphenoxy)ethoxy)-2-(pyridin-3-yl)-1H-inden-1-one], the EC50 on Aβ1-42 was 1.5 µM; in assay [1] it was 1.9 µM.

In the case of `Cc1scnc1C1=C(c2cccs2)C(=O)c2cc(OCCCCc3ccccc3)ccc21` [Compound 29, 3-(5-methylthiazol-4-yl)-6-(4-phenylbutoxy)-2-(thiophen-2-yl)-1H-inden-1-one], the EC50 was 7.5 µM at Aβ1-42 and greater than 500 µM in assay [1].

As for `Cc1ncsc1C1=C(c2cccnc2)C(=O)c2cc(OCCCc3ccccc3)ccc21` [Compound 1, 3-(4-methylthiazol-5-yl)-6-(3-phenylpropoxy)-2-(pyridin-3-yl)-1H-inden-1-one], the EC50 on Aβ1-42 was 8.2 µM; in assay [1], 19.2 µM.

Regarding `Cc1ncsc1C1=C(c2cccnc2)C(=O)c2cc(OCCOc3ccccc3)ccc21` [Compound 17, 3-(4-methylthiazol-5-yl)-6-(2-phenoxyethoxy)-2-(pyridin-3-yl)-1H-inden-1-one], the concentration giving a half-maximal response (EC50) on Aβ1-42 worked out at 5.7 µM; in assay [1] it was 19.2 µM.

`Cc1scnc1C1=C(c2ccc(C(F)(F)F)cc2)C(=O)c2cc(OCCOc3ccncc3)ccc21` [Compound 35, 3-(5-methylthiazol-4-yl)-6-(2-(pyridin-4-yloxy)ethoxy)-2-(4-(trifluoromethyl)phenyl)-1H-inden-1-one]: the EC50 on Aβ1-42 is 1 µM; in assay [1] it was greater than 500 µM.

On to `Cc1scnc1C1=C(c2ccc(F)cc2)C(=O)c2cc(OCCOc3ccc4c(c3)OCO4)ccc21` [Compound 24, 6-(2-(benzo[d][1,3]dioxol-5-yloxy)ethoxy)-2-(4-fluorophenyl)-3-(5-methylthiazol-4-yl)-1H-inden-1-one], for which the concentration giving a half-maximal response (EC50) at Aβ1-42 was 99.6 µM; in assay [1], greater than 500 µM.

With `COc1ccc(OCCOc2ccc3c(c2)C(=O)C(c2ccc(F)cc2)=C3c2ncsc2C)cc1` [Compound 22, 2-(4-fluorophenyl)-6-(2-(4-methoxyphenoxy)ethoxy)-3-(5-methylthiazol-4-yl)-1H-inden-1-one], the figures for the 50% effective concentration (EC50) (at Aβ1-42; in assay [1]) were 18.5 µM and 60.3 µM, respectively.

With `Cc1scnc1C1=C(c2cccs2)C(=O)c2cc(OCCc3ccccc3)ccc21` [Compound 28, 3-(5-methylthiazol-4-yl)-6-phenethoxy-2-(thiophen-2-yl)-1H-inden-1-one], the results for the EC50 (at Aβ1-42; in assay [1]) were 8.3 µM and 310 µM, respectively.

For `COc1ccc(COCOc2ccc3c(c2)C(=O)C(c2cccnc2)=C3c2ccoc2)cc1` [Compound 50, 3-(furan-3-yl)-6-(((4-methoxybenzyl)oxy)methoxy)-2-(pyridin-3-yl)-1H-inden-1-one], the concentration for a half-maximal effect (EC50) on Aβ1-42 worked out at 2.3 µM; in assay [1] it was 19.9 µM.

In the case of `Cc1scnc1C1=C(c2cccs2)C(=O)c2cc(OCCOc3ccc(F)c(F)c3)ccc21` [Compound 37, 6-(2-(3,4-difluorophenoxy)ethoxy)-3-(5-methylthiazol-4-yl)-2-(thiophen-2-yl)-1H-inden-1-one], the values for the EC50 (on Aβ1-42; in assay [1]) were 46.3 µM and 470 µM, respectively.

`Cc1ncsc1C1=C(c2cccs2)C(=O)c2cc(OCCCc3ccccc3)ccc21` [Compound 12, 3-(4-methylthiazol-5-yl)-6-(3-phenylpropoxy)-2-(thiophen-2-yl)-1H-inden-1-one]: the concentration for a half-maximal effect (EC50) worked out at 4.3 µM on Aβ1-42 and 154 µM in assay [1].

`Cc1scnc1C1=C(c2cccnc2)C(=O)c2cc(OCCCN3CCOCC3)ccc21` [Compound 4, 3-(5-methylthiazol-4-yl)-6-(3-morpholinopropoxy)-2-(pyridin-3-yl)-1H-inden-1-one]: the concentration for a half-maximal effect (EC50) at Aβ1-42 stood at 75 µM; in assay [1] it was 156 µM.

Take `COc1ccc(C2=C(c3ncsc3C)c3ccc(OCCc4ccccc4)cc3C2=O)cc1` [Compound 18, 2-(4-methoxyphenyl)-3-(5-methylthiazol-4-yl)-6-phenethoxy-1H-inden-1-one]: the EC50 turned out to be 26.1 µM on Aβ1-42 and 242 µM in assay [1].

For the molecule `COc1ccc(OCCOc2ccc3c(c2)C(=O)C(c2ccc(C(F)(F)F)cc2)=C3c2ncsc2C)cc1OC` [Compound 33, 6-(2-(3,4-dimethoxyphenoxy)ethoxy)-3-(5-methylthiazol-4-yl)-2-(4-(trifluoromethyl)phenyl)-1H-inden-1-one], the results for the half-maximal effective concentration (EC50) (at Aβ1-42; in assay [1]) were 10.4 µM and 145 µM, respectively.

For the molecule `Cc1scnc1C1=C(c2cccs2)C(=O)c2cc(OCCOc3ccccc3)ccc21` [Compound 31, 3-(5-methylthiazol-4-yl)-6-(2-phenoxyethoxy)-2-(thiophen-2-yl)-1H-inden-1-one], the figures for the EC50 (at Aβ1-42; in assay [1]) were 12.8 µM and 166 µM, respectively.

As for `COc1ccc(C2=C(c3ncsc3C)c3ccc(OCCCCc4ccccc4)cc3C2=O)cc1` [Compound 19, 2-(4-methoxyphenyl)-3-(5-methylthiazol-4-yl)-6-(4-phenylbutoxy)-1H-inden-1-one], the concentration giving a half-maximal response (EC50) on Aβ1-42 amounted to 11.6 µM; in assay [1] it was 338 µM.

`O=C1C(c2cccnc2)=C(c2ccoc2)c2ccc(OCCOc3ccc(F)c(F)c3)cc21` [Compound 47, 6-(2-(3,4-difluorophenoxy)ethoxy)-3-(furan-3-yl)-2-(pyridin-3-yl)-1H-inden-1-one]: the results for the EC50 (on Aβ1-42; in assay [1]) were 1.7 µM and 57 µM, respectively.

For `O=C1C(c2cccnc2)=C(c2ccoc2)c2ccc(OCCc3ccccc3)cc21` [Compound 38, 3-(furan-3-yl)-6-phenethoxy-2-(pyridin-3-yl)-1H-inden-1-one], the half-maximal effective concentration (EC50) stood at 3 µM at Aβ1-42 and 120 µM in assay [1].

As for `O=C1C(c2cccnc2)=C(c2ccoc2)c2ccc(OCOCc3ccccc3)cc21` [Compound 40, 6-((benzyloxy)methoxy)-3-(furan-3-yl)-2-(pyridin-3-yl)-1H-inden-1-one], the EC50 at Aβ1-42 is 2.1 µM; in assay [1], 67.1 µM.

Source of the values: patent US20260256797A1, “NOVEL INDENONE DERIVATIVES AND USES THEREOF” (AMYLOID SOLUTION INC., priority 2022, published 2026).
